System: ATF4 luciferase reporter in HEK293T cells
Assay: ATF4-Luc assay (in vitro model of VWMD)
Format: cell-based, human
Details: Homo sapiens, HEK-293T, 7 h, HEK293T cells carrying the ATF4 luciferase reporter, 1 μg/mL tunicamycin, One Glo luminescence
How it was run: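 Stable HEK293T line expressing firefly luciferase behind the human ATF4 5′-UTR, treated with 1 μg/mL tunicamycin plus compound for 7 hours. Luminescence read with One Glo; EC50 determined.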

SMILES	EC50 [nM]
O=C(NC12CC(n3cc(OCCCOC(F)(F)F)cn3)(C1)C2)[C@H]1C[C@@H](O)c2cc(C(F)(F)F)c(F)cc2O1 [Compound 635, (2R,4R)-7-fluoro-4-hydroxy-N-(3-{4-[3-(trifluoromethoxy)propoxy]-1H-pyrazol-1-yl}bicyclo[1.1.1]pentan-1-yl)-6-(trifluoromethyl)-3,4-dihydro-2H-1-benzopyran-2-carboxamide]	< 10
C[C@H](COC(F)(F)F)Oc1cnn(C23CC(NC(=O)[C@H]4C[C@@H](O)c5cc(Cl)ccc5O4)(C2)C3)c1 [Compound 440, (2R,4R)-6-chloro-4-hydroxy-N-[3-(4-{[(2R)-1-(trifluoromethoxy)propan-2-yl]oxy}-1H-pyrazol-1-yl)bicyclo[1.1.1]pentan-1-yl]-3,4-dihydro-2H-1-benzopyran-2-carboxamide]	10 to 50
COc1ccc2nn(C34CCC(NC(=O)[C@H]5C[C@@H](O)c6cc(Cl)ccc6O5)(C3)C4)cc2c1 [Compound 652, (2R,4R)-6-chloro-4-hydroxy-N-[4-(5-methoxy-2H-indazol-2-yl)bicyclo[2.1.1]hexan-1-yl]-3,4-dihydro-2H-1-benzopyran-2-carboxamide]	10 to 50
O=C(NC12CC(c3ccnc(-n4cc(C(F)(F)F)cn4)c3)(C1)C2)[C@H]1C[C@@H](O)c2cc(C(F)(F)F)ccc2O1 [Compound 558, (2R,4R)-4-hydroxy-6-(rifluoromethyl)-N-(3-{2-[4-(trifluoromethyl)-1H-pyrazol-1-yl]pyridin-4-yl}bicyclo[1.1.1]pentan-1-yl)-3,4-dihydro-2H-1-benzopyran-2-carboxamide]	10 to 50
O=C(NC12CC(n3cc(O[C@H]4CC[C@H](OC(F)(F)F)C4)cn3)(C1)C2)[C@H]1C[C@@H](O)c2cc(Cl)ccc2O1 (racemic) [Compound 586, (2R,4R)-6-chloro-4-hydroxy-N-[3-(4-{[(1RS,3RS)-3-(trifluoromethoxy)cyclopentyl]oxy}-1H-pyrazol-1-yl)bicyclo[1.1.1]pentan-1-yl]-3,4-dihydro-2H-1-benzopyran-2-carboxamide]	10 to 50
O=C(COc1ccc(Cl)c(F)c1)N[C@H]1CC[C@H](n2cc(OCCOC(F)(F)F)cn2)CC1 [Compound 457, 2-(4-chloro-3-fluorophenoxy)-N-[(1r,4r)-4-{4-[2-(trifluoromethoxy)ethoxy]-1H-pyrazol-1-yl}cyclohexyl]acetamide]	< 10
O=C(NC12CC(n3cc(-c4ccc(OC(F)(F)F)nc4)cn3)(C1)C2)[C@H]1C[C@@H](O)c2cc(Cl)ccc2O1 [Compound 350, (2R,4R)-6-chloro-4-hydroxy-N-(3-{4-[6-(trifluoromethoxy)pyridin-3-yl]-1H-pyrazol-1-yl}bicyclo[1.1.1]pentan-1-yl)-3,4-dihydro-2H-1-benzopyran-2-carboxamide]	< 10
O=C(N[C@H]1CC[C@H](n2cc(OCCCOC(F)(F)F)cn2)CC1)[C@H]1C[C@@H](O)c2cc(Cl)c(F)cc2O1 [Compound 422, (2R,4R)-6-chloro-7-fluoro-4-hydroxy-N-[(1r,4R)-4-{4-[3-(trifluoromethoxy)propoxy]-1H-pyrazol-1-yl}cyclohexyl]-3,4-dihydro-2H-1-benzopyran-2-carboxamide]	< 10
C[C@@H](COC(F)(F)F)N(C)c1cnn(C23CC(NC(=O)[C@H]4C[C@@H](O)c5cc(Cl)ccc5O4)(C2)C3)c1 [Compound 445, (2R,4R)-6-chloro-4-hydroxy-N-[3-(4-{methyl[(2S)-1-(trifluoromethoxy)propan-2-yl]amino}-1H-pyrazol-1-yl)bicyclo[1.1.1]pentan-1-yl]-3,4-dihydro-2H-1-benzopyran-2-carboxamide]	500 to 2000
O=C(NC12CC(c3cnc([C@H]4C[C@@H](OC(F)(F)F)C4)o3)(C1)C2)[C@H]1C[C@@H](O)c2cc(Cl)ccc2O1 [Compound 410, (2R,4R)-6-chloro-4-hydroxy-N-(3-{2-[cis-3-(trifluoromethoxy)cyclobutyl]-1,3-oxazol-5-yl}bicyclo[1.1.1]pentan-1-yl)-3,4-dihydro-2H-1-benzopyran-2-carboxamide]	< 10
O=C(NC12CC(n3cc(-c4ccc(C(F)(F)F)cn4)cn3)(C1)C2)[C@H]1C[C@@H](O)c2cc(Cl)c(F)cc2O1 [Compound 482, (2R,4R)-6-chloro-7-fluoro-4-hydroxy-N-(3-{4-[5-(trifluoromethyl)pyridin-2-yl]-1H-pyrazol-1-yl}bicyclo[1.1.1]pentan-1-yl)-3,4-dihydro-2H-1-benzopyran-2-carboxamide]	< 10
O=C(N[C@H]1CC[C@H](n2cc(OCCOC(F)(F)F)cn2)CC1)[C@H]1C[C@H](O)c2cc(C(F)(F)F)c(F)cc2O1 [Compound 486, (2R,4R)-7-fluoro-4-hydroxy-N-[(1r,4R)-4-{4-[2-(trifluoromethoxy)ethoxy]-1H-pyrazol-1-yl}cyclohexyl]-6-(trifluoromethyl)-3,4-dihydro-2H-1-benzopyran-2-carboxamide]	< 10
O=C(NC12CC(n3cc(-c4ccc(C(F)(F)F)cn4)cn3)(C1)C2)[C@H]1C[C@H](O)c2cc(C(F)(F)F)c(F)cc2O1 [Compound 640, (2R,4S)-7-fluoro-4-hydroxy-6-(trifluoromethyl)-N-(3-{4-[5-(trifluoromethyl)pyridin-2-yl]-1H-pyrazol-1-yl}bicyclo[1.1.1]pentan-1-yl)-3,4-dihydro-2H-1-benzopyran-2-carboxamide]	< 10
COCCOc1cnn(C23CC(NC(=O)[C@H]4C[C@@H](O)c5cc(Cl)ccc5O4)(C2)C3)c1 [Compound 426, (2R,4R)-6-chloro-4-hydroxy-N-{3-[4-(2-methoxyethoxy)-1H-pyrazol-1-yl]bicyclo[1.1.1]pentan-1-yl}-3,4-dihydro-2H-1-benzopyran-2-carboxamide]	250 to 500
O=C(NC12CC(n3cc4cc(OC(F)(F)F)ccc4n3)(C1)C2)[C@H]1C[C@@H](O)c2cc(Cl)ccc2O1 [Compound 509, (2R,4R)-6-chloro-4-hydroxy-N-{3-[5-(trifluoromethoxy)-2H-indazol-2-yl]bicyclo[1.1.1]pentan-1-yl}-3,4-dihydro-2H-1-benzopyran-2-carboxamide]	10 to 50
Cc1ccc(-c2cnn(C34CC(NC(=O)[C@H]5C[C@@H](O)c6cc(C(F)(F)F)ccc6O5)(C3)C4)c2)nc1 [Compound 555, (2R,4R)-4-hydroxy-N-{3-[4-(5-methylpyridin-2-yl)-1H-pyrazol-1-yl]bicyclo[1.1.1]pentan-1-yl}-6-(trifluoromethyl)-3,4-dihydro-2H-1-benzopyran-2-carboxamide]	< 10
O=C(CO[C@H]1C[C@@H](OC(F)(F)F)C1)NC12CCC(NC(=O)[C@H]3C[C@@H](O)c4cc(Cl)c(F)cc4O3)(CC1)C[C@@H]2O [Compound 488, (2R,4R)-6-chloro-7-fluoro-4-hydroxy-N-[(3S)-3-hydroxy-4-(2-{[(1s,3R)-3-(trifluoromethoxy)cyclobutyl]oxy}acetamido)bicyclo[2.2.2]octan-1-yl]-3,4-dihydro-2H-1-benzopyran-2-carboxamide]	< 10
O=C(NC12CC(n3cc(CCCOC(F)(F)F)nn3)(C1)C2)[C@H]1C[C@@H](O)c2cc(Cl)ccc2O1 [Compound 516, (2R,4R)-6-chloro-4-hydroxy-N-(3-{4-[3-(trifluoromethoxy)propyl]-1H-1,2,3-triazol-1-yl}bicyclo[1.1.1]pentan-1-yl)-3,4-dihydro-2H-1-benzopyran-2-carboxamide]	< 10
O=C(CO[C@H]1C[C@@H](OC(F)(F)F)C1)NC12CC(NC(=O)[C@H]3C[C@@H](O)c4cc(Cl)c(Cl)cc4O3)(C1)C2 [Compound 494, (2R,4R)-6,7-dichloro-4-hydroxy-N-[3-(2-{[(1s,3S)-3-(trifluoromethoxy)cyclobutyl]oxy}acetamido)bicyclo[1.1.1]pentan-1-yl]-3,4-dihydro-2H-1-benzopyran-2-carboxamide]	< 10
O=C(NC12CC(n3cc([C@@H]4CC[C@@H](OC(F)(F)F)C4)nn3)(C1)C2)[C@H]1C[C@@H](O)c2cc(Cl)ccc2O1 (mixture of isomers) [Compound 538, (2R,4R)-6-chloro-4-hydroxy-N-(3-{4-[(1RS,3RS)-3-(trifluoromethoxy)cyclopentyl]-1H-1,2,3-triazol-1-yl}bicyclo[1.1.1]pentan-1-yl)-3,4-dihydro-2H-1-benzopyran-2-carboxamide]	< 10
O=C(NC12CC(n3cc(OCCOC(F)(F)F)cn3)(C1)C2)[C@H]1C[C@@H](O)c2cc(Cl)c(Cl)cc2O1 [Compound 442, (2R,4R)-6,7-dichloro-4-hydroxy-N-(3-{4-[2-(trifluoromethoxy)ethoxy]-1H-pyrazol-1-yl}bicyclo[1.1.1]pentan-1-yl)-3,4-dihydro-2H-1-benzopyran-2-carboxamide]	< 10
O=C(N[C@H]1CC[C@H](n2cc(OCCCOC(F)(F)F)cn2)CC1)[C@H]1C[C@@H](O)c2cc(Cl)ccc2O1 [Compound 423, (2R,4R)-6-chloro-4-hydroxy-N-[(1r,4R)-4-{4-[3-(trifluoromethoxy)propoxy]-1H-pyrazol-1-yl}cyclohexyl]-3,4-dihydro-2H-1-benzopyran-2-carboxamide]	< 10
CC(=O)N1CC=C(c2cnn(C34CC(NC(=O)[C@H]5C[C@@H](O)c6cc(Cl)ccc6O5)(C3)C4)c2)CC1 [Compound 340, (2R,4R)—N-{3-[4-(1-acetyl-1,2,3,6-tetrahydropyridin-4-yl)-1H-pyrazol-1-yl]bicyclo[1.1.1]pentan-1-yl}-6-chloro-4-hydroxy-3,4-dihydro-2H-1-benzopyran-2-carboxamide]	50 to 250
O=C(NC12CC(n3cc([C@@H]4C[C@H]4COC(F)(F)F)nn3)(C1)C2)[C@H]1C[C@@H](O)c2cc(Cl)ccc2O1 (mixture of isomers) [Compound 542, (2R,4R)-6-chloro-4-hydroxy-N-[3-(4-{(1RS,2RS)-2-[(trifluoromethoxy)methyl]cyclopropyl}-1H-1,2,3-triazol-1-yl)bicyclo[1.1.1]pentan-1-yl]-3,4-dihydro-2H-1-benzopyran-2-carboxamide]	< 10
O=C(COc1ccc(Cl)c(F)c1)NC12CCC(n3cc(OCCOC(F)(F)F)cn3)(C1)C2 [Compound 595, 2-(4-chloro-3-fluorophenoxy)-N-(4-{4-[2-(trifluoromethoxy)ethoxy]-1H-pyrazol-1-yl}bicyclo[2.1.1]hexan-1-yl)acetamide]	250 to 500

From patent US20250145594A1, “MODULATORS OF THE INTEGRATED STRESS PATHWAY” (Calico Life Sciences LLC, priority 2020, published 2025)
